Results as given in the NIST ThermoML archive (doi:10.1021/je100300s).
± gives the expanded uncertainty stated by the source.

Assay: refractive index (Na D-line) (dimensionless); xn = mol fraction of the nth substance listed
Conditions: 101 kPa, Liquid, Standard Abbe refractometry

CC(O)CN (stereo not drawn) [1-amino-2-propanol] + O
refractive index
Conditions	293.15 K	298.15 K	303.15 K	308.15 K	313.15 K	318.15 K	323.15 K	328.15 K	333.15 K
x1 = 0.05	1.35692 ± 0.00034	1.35622 ± 0.00034	1.35539 ± 0.00034	1.35453 ± 0.00034	1.35365 ± 0.00034	1.35269 ± 0.00034	1.35169 ± 0.00034	1.35059 ± 0.00034	1.35023 ± 0.00034
x1 = 0.07	1.36527 ± 0.00034	1.36437 ± 0.00034	1.36345 ± 0.00034	1.36246 ± 0.00034	1.36149 ± 0.00034	1.36047 ± 0.00034	1.35931 ± 0.00034	1.35816 ± 0.00034	1.35711 ± 0.00034
x1 = 0.0986	1.3763 ± 0.00033	1.37524 ± 0.00033	1.37416 ± 0.00033	1.37306 ± 0.00033	1.37191 ± 0.00033	1.37079 ± 0.00033	1.36955 ± 0.00033	1.36821 ± 0.00033	1.36712 ± 0.00033
x1 = 0.1993	1.40333 ± 0.00034	1.40184 ± 0.00033	1.40038 ± 0.00033	1.39868 ± 0.00033	1.39716 ± 0.00033	1.39563 ± 0.00033	1.39469 ± 0.00033	1.39247 ± 0.00033	1.39103 ± 0.00033
x1 = 0.3003	1.41934 ± 0.00034	1.41723 ± 0.00034	1.41554 ± 0.00034	1.41385 ± 0.00034	1.41214 ± 0.00034	1.41051 ± 0.00034	1.40883 ± 0.00034	1.4072 ± 0.0003	1.40563 ± 0.00034
x1 = 0.3955	1.42844 ± 0.00034	1.4268 ± 0.00034	1.42513 ± 0.00034	1.42331 ± 0.00034	1.42155 ± 0.00034	1.41987 ± 0.00034	1.41801 ± 0.00034	1.4164 ± 0.0003	1.4146 ± 0.00034
x1 = 0.4929	1.43452 ± 0.00034	1.43286 ± 0.00034	1.431 ± 0.00034	1.42913 ± 0.00034	1.4273 ± 0.00034	1.42548 ± 0.00034	1.42386 ± 0.00034	1.4226 ± 0.0003	1.42038 ± 0.00034
x1 = 0.5995	1.43934 ± 0.00035	1.4377 ± 0.00035	1.4359 ± 0.00035	1.43375 ± 0.00035	1.43187 ± 0.00035	1.43017 ± 0.00035	1.42857 ± 0.00035	1.42697 ± 0.00035	1.42445 ± 0.00035
x1 = 0.7002	1.44298 ± 0.00035	1.44053 ± 0.00035	1.43897 ± 0.00035	1.43685 ± 0.00035	1.43493 ± 0.00035	1.43243 ± 0.00035	1.43146 ± 0.00035	1.43006 ± 0.00035	1.42775 ± 0.00035
x1 = 0.8006	1.44474 ± 0.00036	1.44287 ± 0.00036	1.4411 ± 0.00036	1.43908 ± 0.00036	1.43715 ± 0.00036	1.43532 ± 0.00036	1.43369 ± 0.00036	1.43134 ± 0.00036	1.42949 ± 0.00036
x1 = 0.8992	1.44655 ± 0.00036	1.4447 ± 0.00036	1.44275 ± 0.00036	1.44076 ± 0.00036	1.43889 ± 0.00036	1.43691 ± 0.00036	1.4349 ± 0.00036	1.43292 ± 0.00036	1.43089 ± 0.00036
x1 = 1	1.448 ± 0.00037	1.44609 ± 0.00037	1.44409 ± 0.00037	1.44211 ± 0.00037	1.44009 ± 0.00037	1.43817 ± 0.00037	1.43631 ± 0.00037	1.43405 ± 0.00037	1.43208 ± 0.00037
